The record followed here is the Deep4Chem optical property database.

SMILES strings stand for the structures.

The nature of the data set: solvent given as SMILES.

Compound `Cc1cc(C)c([B-]2(c3c(C)cc(C)cc3C)[O+]=P(c3ccccc3)(c3ccccc3)c3cc(-c4ccc(N(C)C)cc4)sc3-c3sc(-c4ccc(N(C)C)cc4)cc32)c(C)c1` registered an absorption maximum (in C1CCOC1) of 445 nm.
With `N#Cc1ccccc1N1c2sc3ccccc3c2Sc2c1sc1ccccc21`, the absorption maximum (in ClCCl) is recorded as 411 nm.
With `CCCCCCCCC1(CCCCCCCC)c2ccccc2-c2ccc(N(c3ccc(-n4c5ccccc5c5ccccc54)cc3)c3ccc4c(c3)C(CCCCCCCC)(CCCCCCCC)c3ccccc3-4)cc21`, the absorption maximum by setting is: (in C1CCOC1) 347 nm; (in CC#N) 345 nm; (in CC(C)=O) 345 nm; (in CCCCCC) 347 nm; (in CCCCOCCCC) 347 nm; (in CCN(CC)CC) 347 nm. Besides, the absorption maximum reads like this: (in CCOC(C)=O) 345 nm; (in CCOCC) 345 nm; (in CN(C)C=O) 345 nm; (in Cc1ccccc1) 348 nm; (in ClCCl) 348 nm.
On to `CCCCCCCCC1(CCCCCCCC)c2ccccc2-c2ccc(-c3nnc(-c4cccc(-n5c6ccc(C(C)(C)C)cc6c6cc(C(C)(C)C)ccc65)c4)o3)cc21`, for which the absorption maximum (in Cc1ccccc1) is 345 nm.
For `C[N+]1=C(/C=C/C2=C3Oc4c(cc5c6c4CCCN6CCC5)C(c4ccccc4C(=O)O)=C3CCC2)C(C)(C)c2c1ccc1ccccc21`, the absorption maximum is on record as 742 nm (in CC#N), 728 nm (in CCO), 730 nm (in CO) and 746 nm (in ClC(Cl)Cl).
The compound `FC(F)(F)c1ccc(/C=C/c2nc(/C=C/c3ccc(N(c4ccccc4)c4ccccc4)cc3)cc(/C=C/c3ccc(N(c4ccccc4)c4ccccc4)cc3)n2)cc1` registered an absorption maximum (in ClCCl) of 430 nm.
As to `N#CC1=C(N)n2c(=O)c3ccccc3c(=O)n2C1c1ccccc1` (stereo not given), the absorption maximum (in CS(C)=O) is reported as 360 nm.
Compound `O=c1ccc2ccc(C#Cc3ccccc3)cc2o1` returned an absorption maximum (in CC#N) of 300 nm.
As to `N#Cc1cc(-n2c3ccccc3c3ccccc32)c(-n2c3ccccc3c3ccccc32)cc1C#N`, the absorption maximum reads like this: (in C1CCOC1) 368 nm; (in CC#N) 367 nm; (in Cc1ccccc1) 375 nm; (in ClCCl) 364 nm.
For the setting “in Cc1ccccc1”, `CC1(C)c2ccccc2N(c2ccc(-c3nnc(-c4ccc(N5c6ccccc6C(C)(C)c6ccccc65)cc4)o3)cc2)c2ccccc21` gave an absorption maximum of 360 nm.
With `F[B-]1(F)n2c(-c3ccccc3)c3ccc4ccccc4c3c2N=C2c3c(ccc4ccccc34)C(c3ccccc3)=[N+]21`, the absorption maximum (in ClCCl) came out at 737 nm.
Compound `CC(C)(C)c1ccc2c(c1)c1cc(C(C)(C)C)ccc1n2-c1ccc(-c2nc3cc(C#N)c(C#N)cc3nc2-c2ccc(-n3c4ccc(C(C)(C)C)cc4c4cc(C(C)(C)C)ccc43)cc2)cc1` had an absorption maximum (in Cc1ccccc1) of 443 nm.
Take `C(=C\c1c2ccccc2cc2ccccc12)/c1cccc2ccccc12`: the absorption maximum is 386 nm (in CC1CCCCC1) and 386 nm (in CC#N).
Under “in CCOC(C)=O”, `CCn1ncc2c3c(C#N)c4c5ccccc5n(CC)c4nc3ccc21` returned an absorption maximum of 383 nm.
In the case of `CC1(C)c2ccccc2N(c2ccc(-c3n[n+]4c(o3)-c3ccccc3O[B-]4(F)F)cc2)c2ccccc21`, the absorption maximum by setting is: (in C1COCCO1) 361 nm; (in CC(C)=O) 360 nm; (in CCN(CC)CC) 362 nm; (in CCO) 361 nm; (in CCOC(C)=O) 361 nm; (in CS(C)=O) 362 nm. The same compound gave an absorption maximum (in Cc1ccccc1) of 364 nm; an absorption maximum (in ClC(Cl)Cl) of 367 nm; an absorption maximum (in ClCCCl) of 362 nm; an absorption maximum (in ClCCl) of 383 nm; an absorption maximum (in Clc1ccccc1) of 369 nm.
As for `COc1cc2c(cc1OC)C1=C3C(=O)N4C=Cc5cc(OC)c(OC)cc5C4=C3C(=O)N1C=C2`, the absorption maximum by setting is: (in CN(C)C=O) 593 nm; (in ClC(Cl)Cl) 593 nm.
With `F[B-]1(F)n2c(c3cc4ccccc4cc3c2-c2ccccc2)C=C2c3cc4ccccc4cc3C(c3ccccc3)=[N+]21`, the absorption maximum was found to be 761 nm (in C1CCOC1), 764 nm (in CN(C)C=O), 762 nm (in ClCCl) and 765 nm (in c1ccccc1).
In turn, `Cc1c(C(=O)c2ccccc2)c2ccc3cccc4c5cccc6ccc1c(c65)c2c34` had an absorption maximum (in ClCCl) of 391 nm.
Take `CN(C)c1nc(N)c2nc(C#N)n(Cc3ccccc3)c2n1`: the absorption maximum reads like this: (in C1COCCO1) 339 nm; (in CC#N) 338 nm; (in CO) 338 nm; (in ClCCl) 336 nm.
`COc1ccc(C2=C3C(/C=C/c4cc(OC)c(OC)c(OC)c4)=C(C=O)C(C)=[N+]3[B-](F)(F)n3c(/C=C/c4cc(OC)c(OC)c(OC)c4)c(C=O)c(C=Cc4cc(OC)c(OC)c(OC)c4)c32)cc1` returned an absorption maximum (in ClCCl) of 634 nm.
For the compound `CC(=O)c1c2c(cc3c(N(C)C)cccc13)CCC2`, the absorption maximum runs as follows: (in C1CCCCC1) 314 nm; (in C1CCOC1) 330 nm; (in C1COCCO1) 319 nm; (in CC#N) 316 nm; (in CCO) 334 nm; (in CS(C)=O) 334 nm. The compound further showed an absorption maximum (in Cc1ccccc1) of 322 nm, an absorption maximum (in ClC(Cl)Cl) of 334 nm and an absorption maximum (in ClCCl) of 334 nm.
For the compound `COC(=O)C1=C(C(=O)OC)C2(c3cc(Cl)ccc3-c3c(Cl)cc(Cl)cc32)C2(/C=C/c3ccccc3)c3cc(OC)c(OC)cc3CCN12` (stereo not given), under “in ClCCl”, the absorption maximum came to 327 nm.
Regarding `CCOC(=O)c1ccccc1-c1c2ccc(=[N+](CC)CC)cc-2oc2c1c(=O)oc1cc3c(cc12)CCCN3C`, the absorption maximum is, setting by setting: (in CCO) 602 nm; (in ClC(Cl)Cl) 608 nm; (in O) 602 nm.
For the compound `N#Cc1c(N2CCCC2)cc(-c2ccccc2)c2c1C(=O)c1ccccc1-2`, the absorption maximum (in C1CCOC1) is recorded as 358 nm.
Consider `O=Cc1c(O)c(-c2nc3ccccc3s2)cc2ccccc12`, for which the absorption maximum came out at 352 nm (in C1CCOC1); 349 nm (in CC#N); 352 nm (in CC(C)=O); 349 nm (in CCO); 352 nm (in CCOC(C)=O); 346 nm (in CN(C)C=O). Further, the absorption maximum reads like this: (in CO) 349 nm; (in Cc1ccccc1) 358 nm; (in ClC(Cl)Cl) 352 nm; (in ClCCl) 352 nm.
Regarding `CCCC1=Cc2nc1ccc1[nH]c(cc1CCC)c1nc(c(OC(=O)CCCC(=O)OC(C)(C)C)cc3[nH]c2cc3CCC)C(CCC)=C1`, under “in Cc1ccccc1”, the absorption maximum is listed as 645 nm.
Turning to `Cc1ccc(-n2c(-c3ccccc3O)nc(-c3ccccc3O)c2-c2ccccc2O)cc1`, the absorption maximum is recorded as 307 nm (in C1CCOC1); 303 nm (in CC(C)O); 303 nm (in CO); 306 nm (in CS(C)=O); 310 nm (in ClC(Cl)Cl); 309 nm (in ClCCl).
In turn, `Cc1cccc(-c2c3ccccc3cc3ccccc23)n1` yielded an absorption maximum (in ClCCl) of 385 nm.
`COc1ccc(-c2csc(/C(C#N)=C/c3c(Cl)cccc3Cl)n2)cc1` had an absorption maximum (in CC#N) of 360 nm.
In turn, `COc1ccc2c(c1)-c1cc(OC)ccc1C2=O` yielded an absorption maximum (in C1CCCCC1) of 361 nm, an absorption maximum (in CC#N) of 376 nm and an absorption maximum (in CCO) of 382 nm.
With `CC(C)(C)c1ccc(C2=C(c3ccc(N4c5ccccc5C(C)(C)c5ccccc54)cc3)S(=O)(=O)c3c2sc(-c2ccc(N4c5ccccc5C(C)(C)c5ccccc54)cc2)c3-c2ccc(C(C)(C)C)cc2)cc1`, where the note is “in C1CCOC1”, the absorption maximum is listed as 403 nm.
`Cc1c(C)c(N2c3ccccc3Oc3ccccc32)c(C)c(C)c1B(c1c(C)c(C)c(N2c3ccccc3Oc3ccccc32)c(C)c1C)c1c(C)c(C)c(N2c3ccccc3Oc3ccccc32)c(C)c1C` had an absorption maximum (in CC(C)(C)c1ccc(-n2c3ccc([Si](c4ccccc4)(c4ccccc4)c4ccccc4)cc3c3cc([Si](c4ccccc4)(c4ccccc4)c4ccccc4)ccc32)cc1) of 398 nm.
`N#Cc1nc(N(Cc2ccc(Br)cc2)Cc2ccc(Br)cc2)c(C#N)nc1N(Cc1ccc(Br)cc1)Cc1ccc(Br)cc1`: the absorption maximum (in ClC(Cl)Cl) is listed as 485 nm.
The compound `CCn1c2ccccc2c2cc(/C=C/c3cc(/C=C/c4ccc5c(c4)c4ccccc4n5CC)nc(SC)n3)ccc21` gave an absorption maximum (in C1CCOC1) of 406 nm; an absorption maximum (in CCOC(C)=O) of 402 nm; an absorption maximum (in CN(C)C=O) of 413 nm; an absorption maximum (in Cc1ccccc1) of 405 nm; an absorption maximum (in ClCCl) of 409 nm.
For `N#CC(C#N)=C(c1ccc(-n2ccc3ccccc32)cc1)c1ccc(-n2ccc3ccccc32)cc1`, where the note is “in Cc1ccccc1”, the absorption maximum is 400 nm.
As to `O=C(N/N=C/c1ccccc1O)c1ccccc1O`, the absorption maximum was determined as 334 nm (in C1CCOC1); 335 nm (in CC#N); 331 nm (in CC(C)=O); 400 nm (in CCO); 412 nm (in CN(C)C=O); 385 nm (in CS(C)=O). The same compound returned an absorption maximum (in ClCCl) of 335 nm.
For `COc1ccc(/C=C/C2=NC(=C\c3ccncc3)/C(=O)N2C)cc1`, the absorption maximum reads like this: (in C1COCCO1) 422 nm; (in CC#N) 428 nm; (in CCO) 433 nm; (in CCOC(C)=O) 423 nm; (in O) 425 nm.
Where the note is “in CCOC(C)=O”, `CCN1CCN(c2ccc(/N=N/c3ccc([N+](=O)[O-])cc3)cc2)CC1` came in with an absorption maximum of 448 nm.
Regarding `c1ccc(-c2nc(-c3ccc(-c4ccc(-c5nc(-c6ccccc6)c(-c6ccccc6)o5)cc4)cc3)oc2-c2ccccc2)cc1`, the absorption maximum (in C1COCCO1) came to 353 nm.
Under “in Cc1ccccc1”, `Cc1cc(C)c(-c2nnc(-c3ccc(-n4c5ccccc5c5ccccc54)c(C)c3)o2)c(C)c1` displayed an absorption maximum of 339 nm.
Compound `CCCCN1C(=O)c2ccc3c4ccc5c6c(ccc(c7ccc(c2c37)C1=O)c64)C(=O)N(CCCC)C5=O` gave an absorption maximum (in ClC(Cl)Cl) of 526 nm.
